Assay results as given in PMC6100113, “Involvement of CYP4F2 in the Metabolism of a Novel Monophosphate Ester Prodrug of Gemcitabine and Its Interaction Potential In Vitro” (Molecules : A Journal of Synthetic Chemistry and Natural …, 2018).

Experiments:
tumor = conditions: in vitro and in vivo testing in the preclinical setting; cited from earlier work
[1] = Metabolite identification by UPLC/Triple TOF MS in human liver microsomes; format: in vitro ADME; set-up: key: √: metabolites were detected by high-resolution mass spectrometry; conditions: Compound-3 10 μM, 1 mg/mL microsomes, NADPH, 60 min, HRMS
Method: For metabolite identification, a higher concentration of Compound-3 (10 μM) was incubated with liver microsomes (1 mg/mL) in the presence of NADPH (1 mM) and primary human hepatocytes at a density of 1 × 10^6 cell/mL. Samples were collected at 0 min and 60 min with the addition of ice-cold acetonitrile. After vortexing and centrifugation, the supernatant was transferred into a new tube and evaporated to dryness. The samples were then reconstituted in 100 μL of water and methanol (v/v, 9:1). An aliquot of 10 μL of reconstituted solution was injected into UPLC/Triple TOF 5600^+ MS for metabolite identification.
Identification of Compound-3 metabolites was carried out using Acquity UPLC/Triple TOF 5600^+ system. Chromatographic separation for Compound-3 and its metabolites were achieved by an Acquity UPLC HSS T3 column (100 × 2.1 mm i.d., […]; Waters Corp.) maintained at 40 °C. The mobile phase was a mixture of 0.02% formic acid in 5 mM ammonium acetate (A) and methanol (B). The gradient elution was started from 2% B and maintained for 4 min, then increased linearly to 75% B over the next 4 min and maintained for 8 min. […] The flow rate was 0.4 mL/min and the eluent was monitored by UV detection at 280 nm.
For mass detection, a Triple TOF 5600^+ mass spectrometer (AB Sciex, Framingham, MA, USA) was operated in positive ion electrospray (ES-positive) mode with the source temperature at 500 °C and scan range from m/z 100 to 1000 Da. Other parameters were set as follows: ion spray voltage, 5500 V; decluttering potential, 80 V; curtain gas, 40 psi; ion source gas 1, 55 psi; and ion source gas 2, 50 psi. Collision energies of 25 and 65 eV were used for TOF MS and product ion scans, respectively, and a collision energy spread of 20 was used in the MS/MS analysis. Information-dependent acquisition (IDA), together with real-time multiple mass defect filter, was used to trigger acquisition of MS/MS spectra.

CYP4F2 = target: T1, CYP4F2 (Homo sapiens, UniProt P78329); test: Reaction phenotyping with recombinant CYP4F2; format: in vitro ADME; conditions: recombinant CYP4F2 50 nM, 1 μM, NADPH, after 30 min incubation
T1 construct: purchased Corning Gentest
T1 sequence (P78329 5-520): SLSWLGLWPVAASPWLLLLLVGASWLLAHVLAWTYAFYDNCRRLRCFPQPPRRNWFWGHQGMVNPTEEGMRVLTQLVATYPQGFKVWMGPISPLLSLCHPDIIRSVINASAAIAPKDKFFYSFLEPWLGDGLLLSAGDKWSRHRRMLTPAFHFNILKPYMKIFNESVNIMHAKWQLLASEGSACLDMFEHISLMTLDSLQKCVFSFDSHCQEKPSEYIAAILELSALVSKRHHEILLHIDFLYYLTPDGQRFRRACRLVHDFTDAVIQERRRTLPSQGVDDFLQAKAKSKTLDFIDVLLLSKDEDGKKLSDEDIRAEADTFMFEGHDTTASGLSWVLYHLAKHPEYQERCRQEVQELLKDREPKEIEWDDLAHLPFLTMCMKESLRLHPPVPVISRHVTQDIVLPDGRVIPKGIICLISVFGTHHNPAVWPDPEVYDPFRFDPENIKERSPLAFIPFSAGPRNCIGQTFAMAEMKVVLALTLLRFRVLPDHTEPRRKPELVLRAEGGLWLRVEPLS
Method: Compound-3 was incubated separately with human cDNA-expressed cytochrome P450s (CYP1A2, CYP2B6, CYP2C8, CYP2C9, CYP2C19, CYP2D6, CYP3A4, CYP4A11, CYP4F2 and CYP4F3). The incubation mixtures contained individual CYP isoenzymes (50 nM), potassium phosphate buffer (100 mM, pH 7.4), NADPH (1 mM), and Compound-3 (1 µM). The final volume of the incubation mixture was 50 µL. Before the start of the incubation, reaction mixtures were warmed up at 37 °C for 10 min. The reaction was initiated with the addition of NADPH and the incubations were performed at 37 °C in a water bath. […] Control samples without NADPH but substrates were included. The samples were then centrifuged and aliquots of 10 μL of the supernatants were transferred onto LC-MS/MS for the analysis of Compound-3 and M4 (carboxylic acid) levels.
The following are available online. Figure S1. Gemcitabine Formation from Compound-3 Hydrolysis as a function of alkaline phosphatase protein concentrations. Compound-3 (1 μM) was incubated with alkaline phosphatase concentrations ranging from 0.01–0.2 mg/mL at 37 °C (n = 3). Figure S2. Metabolites of Compound-3 in human recombinant CYP4F2. Compound-3 (1 μM) was incubated with human recombinant CYP4F2 (50 nM) in the presence of NADPH at 37 °C (n = 3).

CCCCCCCCCCCCCCCCCCOCCOP(=O)(O)OCC1OC(n2ccc(N)nc2=O)C(F)(F)C1O (stereo not drawn) [Compound-3]
antitumor activity as compared to gemcitabine itself and LY2334737 (tumor): enhanced antitumor activity | detected in matrix HLM [1]: √ | disappearance of Compound-3 in the presence of CYP isozyme (CYP4F2): barely detectable
